Each block holds one compound with its values, some of them ahead of it.
How the values were obtained:
DU-145 = assay: Cytotoxicity against human DU-145 cells assessed as inhibition of cell growth incubated for 24 hrs by MTT assay; format: functional, cell-based; conditions: DU-145, 24 h
A549 = assay: Antiproliferative activity against human A549 cells assessed as inhibition of cell growth; format: functional, cell-based
[1] = target: Signal transducer and activator of transcription 3 (Homo sapiens, UniProt P40763); assay: Inhibition of STAT3 phosphorylation (unknown origin)
Chain of Signal transducer and activator of transcription 3 (P40763 whole entry): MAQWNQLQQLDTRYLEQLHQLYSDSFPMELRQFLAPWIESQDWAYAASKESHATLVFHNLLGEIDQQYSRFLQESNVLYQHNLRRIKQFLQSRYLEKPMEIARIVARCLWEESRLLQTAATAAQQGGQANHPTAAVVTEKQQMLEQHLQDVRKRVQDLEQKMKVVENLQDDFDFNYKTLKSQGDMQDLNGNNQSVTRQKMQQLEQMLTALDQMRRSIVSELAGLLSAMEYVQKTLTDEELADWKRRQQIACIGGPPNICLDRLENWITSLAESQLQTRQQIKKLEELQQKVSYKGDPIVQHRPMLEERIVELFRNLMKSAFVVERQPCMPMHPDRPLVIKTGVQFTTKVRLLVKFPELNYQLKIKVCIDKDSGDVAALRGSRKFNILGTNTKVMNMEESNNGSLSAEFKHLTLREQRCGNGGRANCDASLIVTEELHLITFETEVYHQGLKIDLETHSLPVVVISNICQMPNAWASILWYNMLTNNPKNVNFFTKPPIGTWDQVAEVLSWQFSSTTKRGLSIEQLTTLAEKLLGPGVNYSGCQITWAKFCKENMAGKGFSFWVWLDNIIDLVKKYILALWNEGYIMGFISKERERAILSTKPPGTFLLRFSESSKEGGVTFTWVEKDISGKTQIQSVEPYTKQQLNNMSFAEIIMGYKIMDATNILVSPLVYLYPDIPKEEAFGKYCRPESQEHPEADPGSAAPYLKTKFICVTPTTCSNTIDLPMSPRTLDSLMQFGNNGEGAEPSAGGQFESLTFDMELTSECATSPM

MDA-MB-231 = assay: Antiproliferative activity against human MDA-MB-231 cells assessed as inhibition of cell growth; format: functional, cell-based
Tubulin [2] = assay: Inhibition of tubulin polymerization (unknown origin); format: protein-complex assay, Homo sapiens
HCT-116 [3] = assay: Antiproliferative activity against human HCT-116 cells assessed as inhibition of cell growth; format: functional, cell-based
HCT-116 [4] = assay: Antiproliferative activity against human HCT-116 cells assessed as inhibition of cell growth incubated for 72 hrs by IncuCyte live-cell imaging analysis; format: functional, cell-based; conditions: HCT-116, 72 h
K562 = assay: Antiproliferative activity against human K562 cells assessed as inhibition of cell growth incubated for 72 hrs by IncuCyte live-cell imaging analysis; format: functional, cell-based; conditions: K562, 72 h
CAPAN-1 = assay: Antiproliferative activity against human CAPAN-1 cells assessed as inhibition of cell growth incubated for 72 hrs by IncuCyte live-cell imaging analysis; format: functional, cell-based; conditions: CAPAN-1, 72 h
HL-60 = assay: Antiproliferative activity against human HL-60 cells assessed as inhibition of cell growth incubated for 72 hrs by IncuCyte live-cell imaging analysis; format: functional, cell-based; conditions: HL-60, 72 h
Tubulin [5] = assay: Inhibition of tubulin polymerization (unknown origin) by fluorescence-based tubulin polymerization assay; format: protein-complex assay, Homo sapiens
[6] = Antiproliferative activity against human DND41 cells assessed as inhibition of cell growth incubated for 72 hrs by IncuCyte live-cell imaging analysis; format: functional, cell-based; conditions: DND41, 72 h
Z-138 = assay: Antiproliferative activity against human Z138 cells assessed as inhibition of cell growth incubated for 72 hrs by IncuCyte live-cell imaging analysis; format: functional, cell-based; conditions: Z-138, 72 h
NCI-H460 = assay: Antiproliferative activity against human NCI-H460 cells assessed as inhibition of cell growth incubated for 72 hrs by IncuCyte live-cell imaging analysis; format: functional, cell-based; conditions: NCI-H460, 72 h

Compound: COc1cccc2c1C(=O)c1c(O)c3c(c(O)c1C2=O)C[C@@](O)(C(=O)CO)C[C@@H]3O[C@H]1C[C@H](N)[C@H](O)[C@H](C)O1 [DOXORUBICIN]
IC50 (DU-145): > 30000 nM

IC50 (A549): 1350 nM
IC50 [1]: 6840 nM
IC50 (MDA-MB-231): 2850 nM
IC50 (Tubulin [2]): 830 nM
IC50 (HCT-116 [3]): 3040 nM
Compound: C=CN(c1cccc2ccccc12)S(=O)(=O)c1ccc(OC)cc1

IC50 (HCT-116 [4]): 1400 nM
IC50 (K562): 1300 nM
IC50 (HL-60): 1500 nM
IC50 (Tubulin [5]): 3900 nM
IC50 (NCI-H460): 2800 nM
Compound: COC(=O)Nc1ccc(C(=O)Nc2ccccc2OC)c(O)c1
IC50 (CAPAN-1): 1300 nM
IC50 [6]: 1300 nM
IC50 (Z-138): 1300 nM

Source: ChEMBL document CHEMBL5325469, “Research progress of STAT3-based dual inhibitors for cancer therapy” (Bioorg Med Chem, 2023)
